Test results published in patent US10071103B2, “Treatments for resistant acne” (VYOME BIOSCIENCES PVT. LTD., priority 2014, dated 2018).
In brackets after ≈: the same amount, converted by molar mass. Like-named read-outs stand apart in the source and are kept apart here.

Experiments:
IL-1α = test: P. acnes-induced IL-1α release in THP-1 cells (ELISA); format: cell-based; settings: 25 μg/ml, 100% = P. acnes induced cells
Method: Method: Preparation of Stimulant for Inflammation: P. acnes culture suspension was prepared in PBS and the cell number in the suspension was adjusted to approximately 5×10^8 CFU/ml by measuring the cell density using a Densimat. The bacterial suspension was then heat killed at 80° C. for 30 min and stored at −80° C. until further use.
Cells were seeded in a 96-well format (2×10^5 THP-1 cells per well) in media containing 10% FBS. The cells were stimulated to induce inflammatory cytokines using 3 McFarland equivalent heat-killed P. acnes. Cells in control wells were treated with PBS. One hour after induction with P. acnes, test agents were added to the induced cells at appropriate concentrations to be tested (compound 91 at 25 μg/ml). The plates were incubated at 37° C. for 24 hours. After 24 h, the plates were centrifuged to pellet the cells and the supernatants were collected. The cell culture supernatants thus obtained were analyzed for levels of cytokines (IL-1α, IL-1β, IL-6 and IL-8) by ELISA using R&D Systems kits for individual cytokines following the manufacturer's instructions.

S. aureus MTCC 6908 = test: MIC by micro broth dilution, laboratory S. aureus strain; format: cell-based, Staphylococcus aureus; settings: Staphylococcus aureus, MTCC6908; Table 6; read-out: MIC Susceptible S. aureus (6908) strain
Method: The plates were incubated at 37° C. for 48 h under anaerobic condition for P. acnes and 37° C. for 24 h for S. aureus The plates were read under Bio-Rad plate reader at 595 nm for optical density to generate the dose-response curves. The MIC of the test compound was recorded by addition of Alamar blue dye.
S. aureus MTCC 6908 were grown in Tryptone Soya Agar (TSA) at 37° C. for 24 hours. […] Plates were incubated at 37° C. for 24 hours. […] (2) Zone of Inhibition (ZOI): S. aureus MTCC 6908 were grown in Tryptone Soya Agar (TSA) at 37° C. for 24 hours. BHA plates are spreaded with 100 μl of 0.5 McFarland standard equal bacterial suspension. Test samples (drugs/formulations) were dissolved in water/solvent based on the solubility. Sterile disc (6 mm) were loaded with 10 μl of test samples (of various concentration of drug), and were placed above the spreaded plates. Plates were incubated at 37 C for 24 h, followed by ZOI measurement. (3) Time Kill Assay: 0.5 McFarland standard equal S. aureus culture was prepared in sterile water. Besifloxacin gels were diluted in Tryptone Soya broth (TSB) to get final concentration of 25 μg/ml. Then 900 μl of S. aureus 0.5 McFarland standard equal culture and 100 μl of diluted Besifloxacin gel was mixed to obtain final Besifloxacin concentration, 2.5 μl g/ml. Total reaction mixture (1 ml) was incubated at 37° C. in a tube rotator. After 2 and 6 h exposure, bacterial suspension was placed on Tryptone soya agar plate and incubated at 37° C. for 24 h.
Inoculated plates were incubated at 37° C. for 24 hours.

P. acnes MTCC 1951 = test: MIC by micro broth dilution (Alamar blue), clindamycin-susceptible P. acnes; format: cell-based, Propionibacterium acnes; settings: for MIC: Cutibacterium acnes, MTCC1951; for Activity / bacterial killing, dose response curve (in words): clindamycin-susceptible MTCC 1951
Outline: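 P. acnes in BHI broth, inoculum adjusted to 0.5 McFarland and diluted 100-fold, exposed to serially diluted compound at 37° C. for 48-72 h under anaerobic conditions. Growth read by OD at 595 nm; MIC recorded after Alamar blue addition.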

IL-6 = test: P. acnes-induced IL-6 release in THP-1 cells (ELISA); format: cell-based; settings: 25 μg/ml, THP-1 cells, 100% = P. acnes induced cells

Structure (SMILES): Cc1ncc([N+](=O)[O-])n1CC(O)CN1CCN(c2cc3c(cc2F)c(=O)c(C(=O)O)c2n3C(C)S2)CC1 (stereo not drawn) [Compound 91, 6-Fluoro-7-{4-[2-hydroxy-3-(2-methyl-5-nitro-imidazol-1-yl)-propyl]-piperazin-1-yl}-1-methyl-4-oxo-4H-2-thia-8b-aza-cyclobuta[a]naphthalene-3-carboxylic acid]
- Percentage reduction in P. acnes induced IL-1α release (IL-1α): 27.51%
- Percentage reduction in P. acnes induced IL-1α release (IL-1α; listed as compound 91): 20-25%
- MIC (S. aureus MTCC 6908): 1.5 mg/L (≈ 2.82 µM)
- MIC (P. acnes MTCC 1951; Table 7, against P. acnes, read-out: MIC): 0.2 mg/L (≈ 0.376 µM)
- MIC (P. acnes MTCC 1951; read-out: MIC Susceptible P. acnes (1951) strain): 0.2 mg/L (≈ 0.376 µM)
- Activity / bacterial killing, dose response curve (in words) (P. acnes MTCC 1951): highly efficacious bacterial killing profile
- Activity / bacterial killing, dose response curve (in words) (P. acnes MTCC 1951; listed as compound 91): lower MIC value and faster bacterial killing profile
- Percentage reduction in P. acnes induced IL-6 release (IL-6): 56.76%
- Percentage reduction in P. acnes induced IL-6 release (IL-6; listed as compound 91): ~60%
